Data from paper doi:10.64898/2025.12.03.692196v2, “Dimerization and Threonine-Dependent Stabilization Govern Human YRDC Catalysis” (biorxiv, 2026).
Positions count from the first letter of the chain named.

Columns and labels:
Experiment in all cases: biochemical
Design in all cases: SYPRO Orange DSF; apparent Kd from Tm versus ligand concentration
[1] = biological target: T1, YRDCWT (human YRDC, ΔN43) (Homo sapiens, UniProt Q86U90); settings: With ATP; DSF apparent KD
T1 construct: lacks first 43 residues (N-terminal truncation); N-terminal His6 tag removed with TEV; E. coli BL21(DE3); homodimer
T1 sequence (Q86U90 with tags, fused parts or gaps DEL265-265): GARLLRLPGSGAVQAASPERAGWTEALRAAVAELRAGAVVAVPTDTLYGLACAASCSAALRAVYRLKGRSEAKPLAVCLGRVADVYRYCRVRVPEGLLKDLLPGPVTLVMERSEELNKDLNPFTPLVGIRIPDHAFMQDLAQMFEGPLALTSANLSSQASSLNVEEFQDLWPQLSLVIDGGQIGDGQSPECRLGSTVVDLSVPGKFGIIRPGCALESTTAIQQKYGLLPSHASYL
Description: (§1) Reactions were prepared in a MicroAmp™ 96-well optical reaction plate (Fisher Scientific) with a final volume of 20 μL per well, in assay buffer (50 mM Tricine pH 8.5, 10 mM MgCl₂) with 8 μM YRDC, and 5X SYPRO Orange dye (Invitrogen). The concentrations of substrates, including ATP, L-threonine, and NaHCO3, were varied based on the reaction type. In most cases wild-type YRDC and its mutants were assessed under various conditions, including enzyme alone, enzyme with ATP concentrations ranging from 10 µM to 500 µM, enzyme with L-threonine concentrations between 0.5 mM and 50 mM, either in the presence or absence of 500 µM ATP, and enzyme with NaHCO3 concentrations from 10 mM to 500 mM in the presence of both 500 µM ATP and 25 mM L-threonine. Fluorescence emission was recorded using Applied Biosystems® QuantStudio 1 Real-Time PCR system (λex = 520 nm, λem = 558 nm). Temperature increases were performed over the range of 25–95 °C, with increments of 1 °C/min, while changes in fluorescence intensity were continuously measured. Each experiment was conducted in triplicate, and the data are presented as the mean ± standard deviation. Control reactions, prepared without the enzyme, were used to account for background fluorescence and were subtracted from experimental measurements. Melting curves were fitted using a Boltzmann sigmoidal model, and thermal stability (Tₘ) values were determined from the inflection point of the curve. The dissociation constant (KD) of the enzyme with each substrate is calculated based on the DSF single binding equation[45]: [drawing 1] Where Tm,0 and Tm,∞refer to the melting temperature (Tm) in °C at zero and infinite ligand concentrations, respectively, P represents the protein concentration and Kd,app is the apparent dissociation constant obtained from ligand-dependent thermal stabilisation.

[2] = biological target: T2, YRDCWT (human YRDC, ΔN43) (Homo sapiens, UniProt Q86U90, I221T); settings: DSF apparent KD
T2 construct: lacks first 43 residues (N-terminal truncation); N-terminal His6 tag removed with TEV; E. coli BL21(DE3); homodimer
T2 sequence (Q86U90 44-279 I221T): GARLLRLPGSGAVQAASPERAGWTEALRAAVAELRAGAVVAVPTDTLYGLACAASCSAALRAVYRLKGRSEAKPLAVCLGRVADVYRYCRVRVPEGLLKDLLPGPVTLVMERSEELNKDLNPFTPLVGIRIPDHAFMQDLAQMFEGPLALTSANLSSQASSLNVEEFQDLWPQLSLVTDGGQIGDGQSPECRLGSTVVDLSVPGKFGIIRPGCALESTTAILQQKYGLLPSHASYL
Description: as §1

[3] = biological target: T3, YRDCWT (human YRDC, ΔN43) (Homo sapiens, UniProt Q86U90); settings: DSF apparent KD
T3 construct: lacks first 43 residues (N-terminal truncation); N-terminal His6 tag removed with TEV; E. coli BL21(DE3); homodimer
T3 sequence (Q86U90 44-279 C121A): T2 sequence (Q86U90 44-279 I221T) with C78A, T178I
Description: as §1

[4] = biological target: T4, YRDCWT (human YRDC, ΔN43) (Homo sapiens, UniProt Q86U90, C121A); settings: With L-threonine; DSF apparent KD
T4 construct: lacks first 43 residues (N-terminal truncation); N-terminal His6 tag removed with TEV; E. coli BL21(DE3); homodimer
T4 sequence (Q86U90 44-279 C121A): T2 sequence (Q86U90 44-279 I221T) with C78A, T178I
Description: as §1

[5] = biological target: T5, YRDCWT (human YRDC, ΔN43) (Homo sapiens, UniProt Q86U90, R253K); settings: With L-threonine; DSF apparent KD
T5 construct: lacks first 43 residues (N-terminal truncation); N-terminal His6 tag removed with TEV; E. coli BL21(DE3); homodimer
T5 sequence (Q86U90 44-279 R253K): T2 sequence (Q86U90 44-279 I221T) with T178I, R210K
Description: as §1

YRDCS195A = biological target: T6, YRDCS195A (Homo sapiens, UniProt Q86U90, S238A); settings: With L-threonine; DSF apparent KD
T6 construct: gene YRDC; lacks N-terminal 43 residues; printed numbering S195A is of the truncated protein
T6 sequence (Q86U90 1-279 S238A): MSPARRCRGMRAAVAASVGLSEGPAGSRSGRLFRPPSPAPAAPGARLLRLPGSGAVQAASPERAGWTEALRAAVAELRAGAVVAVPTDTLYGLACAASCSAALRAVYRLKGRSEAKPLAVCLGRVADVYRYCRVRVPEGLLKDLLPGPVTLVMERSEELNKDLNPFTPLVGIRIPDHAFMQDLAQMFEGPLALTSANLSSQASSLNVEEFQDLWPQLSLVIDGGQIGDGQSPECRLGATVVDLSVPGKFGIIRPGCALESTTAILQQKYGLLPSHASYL
Description: as §1

(human YRDC, ΔN43) = biological target: T7, (human YRDC, ΔN43) (Homo sapiens, UniProt Q86U90, A84V); settings: With ATP and L-threonine; DSF apparent KD
T7 construct: lacks first 43 residues (N-terminal truncation); N-terminal His6 tag removed with TEV; E. coli BL21(DE3); homodimer
T7 sequence (Q86U90 44-279 A84V): T2 sequence (Q86U90 44-279 I221T) with A41V, T178I
Description: as §1

## C[C@@H](O)[C@H](N)C(=O)O [L-threonine]
[1]
  Kd: 2100 ± 700 µM
[2]; With ATP
  Kd: 400 ± 100 µM
[3]; With ATP
  Kd: 1200 ± 300 µM

## Nc1ncnc2c1ncn2[C@@H]1O[C@H](COP(=O)(O)OP(=O)(O)OP(=O)(O)O)[C@@H](O)[C@H]1O [ATP]
[4]
  Kd: 133 ± 29.7 µM
[5]
  Kd: 148 ± 112 µM
YRDCS195A
  Kd: 48.9 ± 37.8 µM

## O=C(O)O [bicarbonate]
(human YRDC, ΔN43)
  Kd: 6500 ± 2000 µM
[2]; With ATP and L-threonine
  Kd: 8300 ± 4200 µM
[3]; With ATP and L-threonine
  Kd: 3700 ± 2000 µM
